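48-hour exposure; five concentrations; linearly interpolated endpoints. The concentration for 50% growth inhibition is given as GI50.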 Calls of active or inactive are those of the source. Rule as the data show it: active = GI50 up to about 1.1 µM and inactive = higher.
Experiments:
Assay in all cases: inhibition of tumour cell growth, NCI panel, 48 h
SNB-75 = test system: SNB-75
TK-10 = test system: TK-10
MDA-N = test system: MDA-N
OVCAR-3 = test system: OVCAR-3
SF-539 = test system: SF-539
OVCAR-5 = test system: OVCAR-5
ACHN = test system: ACHN
MCF7 = test system: MCF7
SR = test system: SR
M14 = test system: M14
NCI-H226 = test system: NCI-H226
OVCAR-4 = test system: OVCAR-4
SK-OV-3 = test system: SK-OV-3
HCT-15 = test system: HCT-15
NCI-H23 = test system: NCI-H23
SK-MEL-28 = test system: SK-MEL-28
NCI-H522 = test system: NCI-H522
HT-29 = test system: HT-29
SK-MEL-2 = test system: SK-MEL-2
CAKI-1 = test system: CAKI-1

Compound | GI50 (SNB-75) | GI50 (TK-10) | GI50 (MDA-N) | GI50 (OVCAR-3) | GI50 (SF-539) | GI50 (OVCAR-5) | GI50 (ACHN) | GI50 (MCF7) | GI50 (SR) | GI50 (M14) | GI50 (NCI-H226) | GI50 (OVCAR-4) | GI50 (SK-OV-3) | GI50 (HCT-15) | GI50 (NCI-H23) | GI50 (SK-MEL-28) | GI50 (NCI-H522) | GI50 (HT-29) | GI50 (SK-MEL-2) | GI50 (CAKI-1)
O=C(O)c1nn(-c2ccc(Cl)cc2)c2c1C(=O)c1ccccc1C2=O | 22.8 µM (inactive) | > 100 µM (inactive) | > 100 µM (inactive) | 24.7 µM (inactive) | 30.2 µM (inactive) | > 100 µM (inactive) | > 100 µM (inactive) | > 100 µM (inactive) | 21.2 µM (inactive) | 20 µM (inactive) | > 100 µM (inactive) | > 100 µM (inactive) | > 100 µM (inactive) | > 100 µM | 37.5 µM (inactive) | > 100 µM (inactive) | > 100 µM (inactive) | > 100 µM (inactive) | > 100 µM (inactive) | > 100 µM (inactive)
CC(Oc1ccccc1Cl)C(=O)NN1C(=O)CC(=O)NC1=S (stereo not given) | > 100 µM (inactive) | > 100 µM (inactive) | > 100 µM (inactive) | > 100 µM (inactive) | > 100 µM (inactive) | > 100 µM (inactive) | 63.7 µM (inactive) | > 100 µM (inactive) | > 100 µM (inactive) | > 100 µM (inactive) | > 100 µM (inactive) | > 100 µM (inactive) | > 100 µM (inactive) | > 100 µM | > 100 µM (inactive) | > 100 µM (inactive) | > 100 µM (inactive) | > 100 µM (inactive) | 93.5 µM (inactive) | > 100 µM (inactive)
CCN(CC)CCCNc1ccc2nnn3c4ccc(O)cc4c(=O)c1c23 | 7.48 µM (inactive) | 3.28 µM (inactive) | 8.71 µM (inactive) | 11.4 µM (inactive) | 10.3 µM (inactive) | 13.8 µM (inactive) | 3.34 µM (inactive) | 14 µM (inactive) | 1.69 µM (inactive) | 9.27 µM (inactive) | 6.87 µM (inactive) | 6.35 µM (inactive) | 8.87 µM (inactive) | 5.06 µM | 11.2 µM (inactive) | 18 µM (inactive) | 3.05 µM (inactive) | 2.65 µM (inactive) | 15.1 µM (inactive) | 4.08 µM (inactive)
CCOC(=O)C(CCN1CCC2(CC1)C(=O)N(C)CN2c1ccccc1)C(=O)OCC | > 100 µM (inactive) | > 100 µM (inactive) | > 100 µM (inactive) | > 100 µM (inactive) | > 100 µM (inactive) | > 100 µM (inactive) | > 100 µM (inactive) | > 100 µM (inactive) | > 100 µM (inactive) | > 100 µM (inactive) | > 100 µM (inactive) | > 100 µM (inactive) | > 100 µM (inactive) | > 100 µM | > 100 µM (inactive) | > 100 µM (inactive) | > 100 µM (inactive) | > 100 µM (inactive) | > 100 µM (inactive) | > 100 µM (inactive)
COC(=S)OC1CC(n2cnc3c(=O)[nH]cnc32)OC1CO[Si](C)(C)C(C)(C)C (stereo not given) | > 100 µM (inactive) | > 100 µM (inactive) | > 100 µM (inactive) | > 100 µM (inactive) | > 100 µM (inactive) | > 100 µM (inactive) | > 100 µM (inactive) | > 100 µM (inactive) | > 100 µM (inactive) | > 100 µM (inactive) | > 100 µM (inactive) | > 100 µM (inactive) | > 100 µM (inactive) | > 100 µM | > 100 µM (inactive) | > 100 µM (inactive) | > 100 µM (inactive) | > 100 µM (inactive) | > 100 µM (inactive) | > 100 µM (inactive)
CC(O)CC(=O)CO[C@H]1[C@H](O)[C@@H](O)[C@@H](O)[C@@H]2NC(=O)c3c(cc4c(c3O)OCO4)[C@H]21 (stereo not given in full) | 0.0472 µM (active) | 0.0353 µM (active) | 0.0366 µM (active) | 0.0457 µM (active) | 0.0214 µM (active) | 0.0711 µM (active) | 0.0391 µM (active) | 0.0194 µM (active) | 0.0335 µM (active) | 0.0361 µM (active) | 0.0499 µM (active) | 0.0483 µM (active) | 0.0617 µM (active) | 0.256 µM | 0.0335 µM (active) | < 0.0201 µM (active) | 0.0242 µM (active) | 0.0258 µM (active) | 0.0363 µM (active) | 0.512 µM (active)
CCCCn1c2c(n(CCCC)c1=[Se])-c1c(n(CCCC)c(=[Se])n1CCCC)S[Se][Se]S2 | 20.6 µM (inactive) | 5.4 µM (inactive) | 33.7 µM (inactive) | 6.95 µM (inactive) | 20.8 µM (inactive) | 20.7 µM (inactive) | 12 µM (inactive) | 25.4 µM (inactive) | 20.7 µM (inactive) | 25.6 µM (inactive) | 6.52 µM (inactive) | 9.27 µM (inactive) | 24.5 µM (inactive) | 13.7 µM | 25.1 µM (inactive) | 39.1 µM (inactive) | 1.61 µM (inactive) | 26.5 µM (inactive) | 18 µM (inactive) | 5.3 µM (inactive)
